According to patent US10100041B2, “Pyrazolyl substituted tetrahydropyranylsulfones” (GRÜNENTHAL GMBH, priority 2015, dated 2018):

Molecular target: T1, Human CaV2.2 channels (Homo sapiens, UniProt Q00975)
T1 construct: expressed in transfected cells
Test: Fluorescence assay for CaV2.2 channels using potassium depolarization to induce channel opening (FLIPR, Fluo 4)
Format: cell-based
Conditions: 30 mM KCl (alternative assay buffer, inactivated channel state), HEK293 cells; for inhibition at 3 µM: HEK293, 3 μM test compound, read-out: Activity Category: %-Inhib (CaV2.2) @3 μM @30 mM KCl
Text: In the process, the Ca^2+ influx is quantified in the FLIPR assay with the aid of a Ca^2+-sensitive dye (type Fluo-4, Molecular Probes Europe BV, Leiden, the Netherlands) in a fluorescent imaging plate reader (FLIPR 3, Molecular Devices, Sunnyvale, USA), as described hereinafter.
2.1 Fluorescence Assay for CaV2.2 Channels Using Potassium Depolarization to Induce Channel Opening
Human CaV2.2 channels were stably expressed in HEK293 cells together with alpha2-delta and beta subunits of voltage gated calcium channels. In addition, an inwardly rectifying potassium channel (Kir2.3) was stably expressed in these cells to augment control of the cell membrane potential by the concentration of extracellular potassium ions. Raise of the extracellular potassium concentration leads to depolarization of the membrane potential and thus regulates the voltage dependent state of CaV2.2 channels. For preparation, cells were seeded in black poly-D-lysine coated 96-well plates (Becton Dickinson, Biocoat 4640) in 100 μL medium [500 mL DMEM/F-12 plus Glutamax (Invitrogen 31331-093) plus 5.5 mL MEM NEAA 100× (Invitrogen 11140-035) plus 50 mL FBS decomplemented (Invitrogen 10270-106) plus 200 μg/mL Geneticin (Invitrogen 10131-027) plus 50 μg/mL Hygromycin B (Invitrogen 10687-010) plus 2 μg/mL Blasticidin (anti-b15b Invivo-Gen) plus 0.2 μg/mL Puromycin (A 11138-03)] at a cell density of 30.000 cells per well. Plates were incubated at 37° C. (5% CO2) for 20 to 23 h. On the day of experiment medium was discarded and cells were loaded with Fluo 4 by addition of 100 μL of basic assay buffer (10 mM HEPES, 1 mM KCl, 149 mM NaCl, 0.8 mM CaCl2, 1.7 mM MgCl2, 10 mM Glucose, 0.1% BSA. pH 7.4) containing 2 μM Fluo 4 (Molecular Probes; F-14201), 0.01% pluronic acid (Molecular Probes; P-6866) and 2.5 mM probenecid (Molecular Probes; P36400). Cells were incubated in the dark at 25° C. for 60 min. Then dye containing buffer was discarded and […] basic (1 mM KCl) or alternative (30 mM KCl) assay buffer was added. The alternative assay buffer contained altered concentrations of KCl (30 mM) and NaCl (120 mM) and was used in order to promote the inactivated channel state. After that 25 μL of basic or alternative assay buffer with or without test compound were added and cells were incubated again in the dark at 25° C. for 15 min. Fluorescence intensity was measured on a FLIPR 3 instrument (Molecular Devices Corp., Sunnyvale, Calif.) with excitation at 480 nm and emission at 535 nm. After continuously reading fluorescence for 30 sec, 50 μL of basic assay buffer containing 210 mM KCl (NaCl omitted) were added for depolarization. Peak fluorescent signal intensity was determined and the amplitude of the peak signal, normalized to base line, was used to measure channel inhibition by test compounds.

T1 sequence (Q00975 whole entry): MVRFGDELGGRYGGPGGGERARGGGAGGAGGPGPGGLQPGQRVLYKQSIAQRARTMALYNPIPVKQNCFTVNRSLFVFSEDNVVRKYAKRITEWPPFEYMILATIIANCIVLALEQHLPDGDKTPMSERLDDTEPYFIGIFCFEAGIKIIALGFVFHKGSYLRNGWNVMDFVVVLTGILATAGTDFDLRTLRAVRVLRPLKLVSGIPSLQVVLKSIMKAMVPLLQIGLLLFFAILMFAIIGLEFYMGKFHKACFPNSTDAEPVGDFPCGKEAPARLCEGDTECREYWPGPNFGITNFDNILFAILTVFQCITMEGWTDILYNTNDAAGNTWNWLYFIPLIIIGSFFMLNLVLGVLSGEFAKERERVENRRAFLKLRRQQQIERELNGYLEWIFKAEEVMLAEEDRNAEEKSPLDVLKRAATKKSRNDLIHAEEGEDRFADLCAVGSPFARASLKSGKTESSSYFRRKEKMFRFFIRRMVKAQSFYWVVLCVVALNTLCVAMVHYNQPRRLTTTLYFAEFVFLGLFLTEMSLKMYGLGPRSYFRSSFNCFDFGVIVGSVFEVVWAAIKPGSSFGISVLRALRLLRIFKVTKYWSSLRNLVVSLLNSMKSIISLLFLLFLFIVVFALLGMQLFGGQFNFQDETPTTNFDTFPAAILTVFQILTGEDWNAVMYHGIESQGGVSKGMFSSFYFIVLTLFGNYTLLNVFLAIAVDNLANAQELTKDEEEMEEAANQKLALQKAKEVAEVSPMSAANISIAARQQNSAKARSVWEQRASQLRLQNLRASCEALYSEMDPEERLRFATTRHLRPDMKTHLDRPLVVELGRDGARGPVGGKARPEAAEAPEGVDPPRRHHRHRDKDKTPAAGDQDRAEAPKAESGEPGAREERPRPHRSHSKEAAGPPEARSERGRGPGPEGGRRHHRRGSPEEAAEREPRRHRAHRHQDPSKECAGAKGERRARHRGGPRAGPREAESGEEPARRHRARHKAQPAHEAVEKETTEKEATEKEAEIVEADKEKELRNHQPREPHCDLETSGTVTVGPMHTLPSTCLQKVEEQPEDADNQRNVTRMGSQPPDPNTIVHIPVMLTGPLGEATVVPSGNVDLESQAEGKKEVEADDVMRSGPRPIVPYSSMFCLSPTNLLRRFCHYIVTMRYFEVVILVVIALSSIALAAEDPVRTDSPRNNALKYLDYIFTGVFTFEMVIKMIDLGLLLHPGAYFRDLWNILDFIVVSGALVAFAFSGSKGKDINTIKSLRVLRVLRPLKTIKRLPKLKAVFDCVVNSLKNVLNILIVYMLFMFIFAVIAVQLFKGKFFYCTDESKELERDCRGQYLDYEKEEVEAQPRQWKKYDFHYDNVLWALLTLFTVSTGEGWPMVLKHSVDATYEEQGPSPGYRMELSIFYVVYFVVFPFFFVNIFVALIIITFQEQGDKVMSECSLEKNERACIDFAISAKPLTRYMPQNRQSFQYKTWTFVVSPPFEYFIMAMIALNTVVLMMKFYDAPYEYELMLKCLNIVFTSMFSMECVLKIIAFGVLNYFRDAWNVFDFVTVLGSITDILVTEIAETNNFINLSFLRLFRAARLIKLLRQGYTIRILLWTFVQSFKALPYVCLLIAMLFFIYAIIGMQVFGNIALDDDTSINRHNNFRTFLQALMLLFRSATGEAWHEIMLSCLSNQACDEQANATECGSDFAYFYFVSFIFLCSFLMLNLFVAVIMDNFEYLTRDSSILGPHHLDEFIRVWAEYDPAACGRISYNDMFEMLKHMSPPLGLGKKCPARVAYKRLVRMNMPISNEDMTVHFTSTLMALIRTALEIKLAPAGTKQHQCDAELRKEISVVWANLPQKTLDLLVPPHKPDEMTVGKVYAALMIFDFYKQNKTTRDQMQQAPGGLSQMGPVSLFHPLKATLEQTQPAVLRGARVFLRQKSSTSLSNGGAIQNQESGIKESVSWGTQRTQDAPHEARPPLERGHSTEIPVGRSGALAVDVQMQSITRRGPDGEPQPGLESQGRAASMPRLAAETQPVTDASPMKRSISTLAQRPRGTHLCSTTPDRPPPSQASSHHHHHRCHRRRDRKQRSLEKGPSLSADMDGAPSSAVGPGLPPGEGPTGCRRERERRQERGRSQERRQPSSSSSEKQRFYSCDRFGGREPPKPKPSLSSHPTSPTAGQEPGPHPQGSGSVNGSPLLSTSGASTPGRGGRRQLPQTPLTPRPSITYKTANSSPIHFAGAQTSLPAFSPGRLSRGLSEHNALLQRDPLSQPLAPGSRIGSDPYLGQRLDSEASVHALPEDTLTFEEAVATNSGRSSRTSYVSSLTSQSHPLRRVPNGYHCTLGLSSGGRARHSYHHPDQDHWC

SMILES | inhibition at 3 µM | Activity Category: %-Inhib (CaV2.2) @3 μM @30 mM KCl (3 μM test compound)
CC(C)(C(N)=O)n1nc(C(F)(F)F)cc1C1CC(C)(S(=O)(=O)c2cccc(C(F)(F)F)c2)CCO1 (stereo not drawn) [Example 26 cis-EN1, 2-Methyl-2-[5-[4-methyl-4-[[3-(trifluoromethyl)phenyl]sulfonyl]-tetrahydro-pyran-2-yl]-3-(trifluoromethyl)-1H-pyrazol-1-yl]-propionamide] | > 95% | 
CC(C)(C(N)=O)n1nc(C(F)(F)F)cc1C1CC(C)(S(=O)(=O)c2cccc(C(F)(F)F)c2)CCO1 (stereo not drawn) [Example 26 cis-EN2, 2-Methyl-2-[5-[4-methyl-4-[[3-(trifluoromethyl)phenyl]sulfonyl]-tetrahydro-pyran-2-yl]-3-(trifluoromethyl)-1H-pyrazol-1-yl]-propionamide] |  | B (“B”: %-Inhibition >75% up to ≤95%)
CN(C)C(=O)Cn1nc(C(F)(F)F)cc1C1CC(C)(S(=O)(=O)c2cccc(C(F)(F)F)c2)CCO1 (stereo not drawn) [Example 28 cis-EN1, N,N-Dimethyl-2-[5-[4-methyl-4-[[3-(trifluoromethyl)phenyl]sulfonyl]-tetrahydro-pyran-2-yl]-3-(trifluoromethyl)-1H-pyrazol-1-yl]-acetamide] | 75 to 95% | 
CNC(=O)Cn1nc(C(F)(F)F)cc1C1CC(C)(S(=O)(=O)c2cccc(C(F)(F)F)c2)CCO1 (stereo not drawn) [Example 29 cis-EN1, N-Methyl-2-[5-[4-methyl-4-[[3-(trifluoromethyl)phenyl]sulfonyl]-tetrahydro-pyran-2-yl]-3-(trifluoromethyl)-1H-pyrazol-1-yl]-acetamide] | 75 to 95% | 
